Measurements: article PMC7587962, “Evaluation of Cytotoxicity and α-Glucosidase Inhibitory Activity of Amide and Polyamino-Derivatives of Lupane Triterpenoids” (Molecules, 2020)
Where two headings read alike, the source gives them in different places.

How the values were obtained:
BT-549 = assay: NCI-60 SRB screen: breast cancer BT-549; assay type: cell-based, human; settings: BT-549
MOLT-4 = assay: NCI-60 SRB screen: leukemia MOLT-4; assay type: cell-based; settings: Homo sapiens, 48 h, MOLT-4
NCI-H460 = assay: NCI-60 SRB screen: non-small cell lung cancer NCI-H460; assay type: cell-based; settings: Homo sapiens, 48 h, NCI-H460
OVCAR-5 = assay: NCI-60 SRB screen: ovarian cancer OVCAR-5; assay type: cell-based, human; settings: OVCAR-5
MDA-MB-231/ATCC = assay: NCI-60 SRB screen: breast cancer MDA-MB-231/ATCC; assay type: cell-based; settings: Homo sapiens, 48 h
Melanoma subpanel = assay: NCI-60 screen, subpanel Melanoma
OVCAR-3 = assay: NCI-60 SRB screen: ovarian cancer OVCAR-3; assay type: cell-based, human; settings: OVCAR-3
UACC-257 = assay: NCI-60 SRB screen: melanoma UACC-257; assay type: cell-based, human; settings: UACC-257
HOP-92 = assay: NCI-60 SRB screen: non-small cell lung cancer HOP-92; assay type: cell-based, human; settings: HOP-92
Leukemia subpanel = assay: NCI-60 screen, subpanel Leukemia
T-47D = assay: NCI-60 SRB screen: breast cancer T-47D; assay type: cell-based, human; settings: T-47D
SK-OV-3 = assay: NCI-60 SRB screen: ovarian cancer SK-OV-3; assay type: cell-based, human; settings: SK-OV-3
COLO 205 = assay: NCI-60 SRB screen: colon cancer COLO 205; assay type: cell-based, human; settings: COLO 205
A498 = assay: NCI-60 SRB screen: renal cancer A498; assay type: cell-based, human; settings: A498
Renal Cancer subpanel = assay: NCI-60 screen, subpanel Renal Cancer
Prostate cancer subpanel = assay: NCI-60 screen, subpanel Prostate cancer
SF-539 = assay: NCI-60 SRB screen: CNS cancer SF-539; assay type: cell-based, human; settings: SF-539
HL-60(TB) = assay: NCI-60 SRB screen: leukemia HL-60(TB); assay type: cell-based; settings: Homo sapiens, 48 h, HL-60(TB)
PC-3 = assay: NCI-60 SRB screen: prostate cancer PC-3; assay type: cell-based, human; settings: PC-3
K-562 = assay: NCI-60 SRB screen: leukemia K-562; assay type: cell-based, human; settings: K-562
[1] = tested on: 60 human tumor cell lines; assay: cells
Colon Cancer subpanel = assay: NCI-60 screen, subpanel Colon Cancer
NCI-H23 = assay: NCI-60 SRB screen: non-small cell lung cancer NCI-H23; assay type: cell-based, human; settings: NCI-H23
ACHN = assay: NCI-60 SRB screen: renal cancer ACHN; assay type: cell-based, human
MALME-3M = assay: NCI-60 SRB screen: melanoma MALME-3M; assay type: cell-based, human; settings: MALME-3M
MDA-MB-435 = assay: NCI-60 SRB screen: melanoma MDA-MB-435; assay type: cell-based, human; settings: MDA-MB-435
CAKI-1 = assay: NCI-60 SRB screen: renal cancer CAKI-1; assay type: cell-based, human; settings: CAKI-1
Breast cancer subpanel = assay: NCI-60 screen, subpanel Breast cancer
NSCL cancer subpanel = assay: NCI-60 screen, subpanel NSCL cancer
NCI-H322M = assay: NCI-60 SRB screen: non-small cell lung cancer NCI-H322M; assay type: cell-based, human
NCI/ADR-RES = assay: NCI-60 SRB screen: ovarian cancer NCI/ADR-RES; assay type: cell-based, human
RXF 393 = assay: NCI-60 SRB screen: renal cancer RXF 393; assay type: cell-based, human; settings: RXF 393
HT29 = assay: NCI-60 SRB screen: colon cancer HT29; assay type: cell-based; settings: Homo sapiens, HT29
KM12 = assay: NCI-60 SRB screen: colon cancer KM12; assay type: cell-based, human; settings: KM12
EKVX = assay: NCI-60 SRB screen: non-small cell lung cancer EKVX; assay type: cell-based, human
[2] = Homo sapiens, five concentrations, 48 h, SRB, read-out: GI50
[3] = single dose 10 µM, read-out: Percentage Cell Growth
[4] = five concentrations, SRB, read-out: GI50

`C=C(C)[C@@H]1CC[C@]2(C(=O)NCCNCCNCCN)CC[C@]3(C)[C@H](CC[C@@H]4[C@@]5(C)CCC(=O)C(C)(C)[C@@H]5CC[C@]43C)[C@@H]12` [Compound 11] was tested. Which “Percentage Cell Growth” value (BT-549; single dose 10 µM) did it give?
The value was 58.31%.

And the GI50 (BT-549; [2])?
The GI50 was 8.91 µM.

What about the activity at 10 µM (MOLT-4; [3]) of the same molecule?
Its activity at 10 µM is -16.3%.

And the GI50 (MOLT-4; [4])?
The GI50 was 6.96 µM.

What about the activity at 10 µM (NCI-H460; [3]) of the same molecule?
Its activity at 10 µM is -90.9%.

And the GI50 (NCI-H460; [4])?
The GI50 was 9.4 µM.

What about the GI50 (OVCAR-5; [2]) of the same molecule?
Its GI50 is 8.78 µM.

And the “Percentage Cell Growth” value (OVCAR-5; single dose 10 µM)?
Its value is −44.11%.

What about the activity at 10 µM (MDA-MB-231/ATCC; MDA-MB-231/ATCC, single dose 10 µM, read-out: Percentage Cell Growth) of the same molecule?
Its activity at 10 µM is -92.4%.

And the GI50 (MDA-MB-231/ATCC; MDA-MB-231, MDA-MB-31/ATCC, five concentrations, SRB, read-out: GI50)?
Its GI50 is 8.03 µM.

And the “MID b, average sensitivity of all cell line of particular subpanel” value (“MID b, average sensitivity” for short) (Melanoma subpanel)?
The value was 12.84 µM.

And the “Selectivity, ratio MID a: MID b” value (Melanoma subpanel)?
The value was 0.71.

And the GI50 (OVCAR-3; [2])?
The GI50 was 7.65 µM.

What about the “Percentage Cell Growth” value (OVCAR-3; single dose 10 µM) of the same molecule?
The value was −72.48%.

What about the GI50 (UACC-257; [2]) of the same molecule?
Its GI50 is 7.91 µM.

And the “Percentage Cell Growth” value (UACC-257; single dose 10 µM)?
Its value is −10.66%.

And the “Percentage Cell Growth” value (HOP-92; single dose 10 µM)?
The value was −65.19%.

What about the GI50 (HOP-92; [2]) of the same molecule?
The GI50 was 2.93 µM.

And the “MID b, average sensitivity” value (Leukemia subpanel)?
Its value is 7.73 µM.

What about the “Selectivity, ratio MID a: MID b” value (Leukemia subpanel) of the same molecule?
The value was 1.19.

And the GI50 (T-47D; Homo sapiens, T47D, five concentrations, 48 h, SRB, read-out: GI50)?
Its GI50 is 7.52 µM.

What about the “Percentage Cell Growth” value (T-47D; single dose 10 µM) of the same molecule?
Its value is −4.36%.

And the GI50 (SK-OV-3; [2])?
The GI50 was 10.6 µM.

What about the “Percentage Cell Growth” value (SK-OV-3; single dose 10 µM) of the same molecule?
The value was 70.49%.

What about the “Percentage Cell Growth” value (COLO 205; single dose 10 µM) of the same molecule?
Its value is −47.48%.

What about the GI50 (COLO 205; [2]) of the same molecule?
The GI50 was 8.74 µM.

And the “Percentage Cell Growth” value (A498; single dose 10 µM)?
Its value is 80.81%.

And the GI50 (A498; [2])?
Its GI50 is 42.6 µM.

And the “MID b, average sensitivity” value (Renal Cancer subpanel)?
Its value is 12.52 µM.

What about the “Selectivity, ratio MID a: MID b” value (Renal Cancer subpanel) of the same molecule?
Its value is 0.73.

What about the “MID b, average sensitivity” value (Prostate cancer subpanel) of the same molecule?
Its value is 6.87 µM.

And the “Selectivity, ratio MID a: MID b” value (Prostate cancer subpanel)?
Its value is 1.33.

And the GI50 (SF-539; [2])?
Its GI50 is 7.53 µM.

What about the “Percentage Cell Growth” value (SF-539; single dose 10 µM) of the same molecule?
Its value is −92.71%.

What about the activity at 10 µM (HL-60(TB); [3]) of the same molecule?
Its activity at 10 µM is -35.6%.

And the GI50 (HL-60(TB); [4])?
The GI50 was 8.88 µM.

And the GI50 (PC-3; [2])?
Its GI50 is 6.26 µM.

What about the “Percentage Cell Growth” value (PC-3; single dose 10 µM) of the same molecule?
Its value is −24.64%.

What about the GI50 (K-562; Homo sapiens, K562, five concentrations, 48 h, SRB, read-out: GI50) of the same molecule?
The GI50 was 8.2 µM.

And the “Percentage Cell Growth” value (K-562; single dose 10 µM)?
The value was −16.99%.

What about the GI50 ([1]; read-out: GI50 ranges against all panels of NCI60) of the same molecule?
The GI50 was 5.6 to 50 µM.

And the GI50 ([1]; read-out: MID a, average sensitivity of all cell line (GI50-MID))?
Its GI50 is 9.17 µM.

What about the “MID b, average sensitivity” value (Colon Cancer subpanel) of the same molecule?
Its value is 7.68 µM.

And the “Selectivity, ratio MID a: MID b” value (Colon Cancer subpanel)?
The value was 1.19.

What about the GI50 (NCI-H23; [2]) of the same molecule?
Its GI50 is 9.14 µM.

And the “Percentage Cell Growth” value (NCI-H23; single dose 10 µM)?
The value was −35.23%.

And the GI50 (ACHN; [2])?
Its GI50 is 13.8 µM.

What about the “Percentage Cell Growth” value (ACHN; single dose 10 µM) of the same molecule?
The value was −83.29%.

And the GI50 (MALME-3M; [2])?
Its GI50 is 7.4 µM.

And the “Percentage Cell Growth” value (MALME-3M; single dose 10 µM)?
The value was −72.82%.

What about the GI50 (MDA-MB-435; [2]) of the same molecule?
Its GI50 is 8.7 µM.

And the “Percentage Cell Growth” value (MDA-MB-435; single dose 10 µM)?
The value was −49.89%.

What about the “Percentage Cell Growth” value (CAKI-1; single dose 10 µM) of the same molecule?
Its value is −8.79%.

What about the GI50 (CAKI-1; [2]) of the same molecule?
Its GI50 is 5.87 µM.

And the “MID b, average sensitivity” value (Breast cancer subpanel)?
The value was 8.04 µM.

What about the “Selectivity, ratio MID a: MID b” value (Breast cancer subpanel) of the same molecule?
The value was 1.14.

And the “MID b, average sensitivity” value (NSCL cancer subpanel)?
The value was 7.58 µM.

What about the “Selectivity, ratio MID a: MID b” value (NSCL cancer subpanel) of the same molecule?
The value was 1.21.

What about the GI50 (NCI-H322M; [2]) of the same molecule?
Its GI50 is 7.32 µM.

And the “Percentage Cell Growth” value (NCI-H322M; single dose 10 µM)?
Its value is −81.08%.

And the GI50 (NCI/ADR-RES; [2])?
Its GI50 is 8.41 µM.

And the “Percentage Cell Growth” value (NCI/ADR-RES; single dose 10 µM)?
The value was −73.33%.

What about the GI50 (RXF 393; [2]) of the same molecule?
Its GI50 is 5.6 µM.

And the “Percentage Cell Growth” value (RXF 393; single dose 10 µM)?
Its value is −71.88%.

And the activity at 10 µM (HT29; HT-29, 48 h, single dose 10 µM, read-out: Percentage Cell Growth)?
The activity at 10 µM was -77.4%.

And the GI50 (HT29; HT-29, five concentrations, 48 h, SRB, read-out: GI50)?
Its GI50 is 7.17 µM.

And the GI50 (KM12; [2])?
The GI50 was 8.47 µM.

What about the “Percentage Cell Growth” value (KM12; single dose 10 µM) of the same molecule?
Its value is −81.93%.

What about the GI50 (EKVX; [2]) of the same molecule?
The GI50 was 7.34 µM.

And the “Percentage Cell Growth” value (EKVX; single dose 10 µM)?
Its value is 11.37%.
